Test results reported in patent EP0857177B1, “PROCESS FOR THE PREPARATION OF A SINGLE CHAIN FV ANTIBODY FRAGMENT” (Novartis AG, priority 1995, dated 1997).

Tested on: anti-phOx-scFv (αphOx15-scFv with c-myc tag), purified monomeric, expressed in Sf9 insect cells
Test: Surface plasmon resonance (BIAcore) measurement of the monovalent interaction between immobilised scFv and phOx
Type: binding
Conditions: monomeric anti-phOx-scFv amine-coupled to CM5 sensor chip (2160 RU); phOx offered as analyte phOx20.5BSA in HBS pH 7.4; BSA background RU subtracted; derived from differential RU at different phOx concentrations; error of 12.6% for the slope
Procedure: A second independent assay is employed to confirm the low affinity of the monovalent interaction between anti-phOx-scFv and phOx. Surface plasmon resonance signals (Kretschmann, E. and Raether, H. (1968) Z. Naturforsch. 23a, 2135-2136; Liedberg, et al., (1983) Sensors and Actuators 4, 299-304) are recorded with a BlAcore machine (Pharmacia Biosensor AB; Jönsson, et al., (1991) BioTechniques 11, 620-627; Chaiken, et al., (1992) Anal. Biochem. 201, 197-210). Purified monomeric anti-phOx-scFv at a concentration of 40 µg/ml in 5 mM maionic acid pH 6.0 / 0.05% [v/v] Tween-20 is coupled to a CM5 sensor chip using the Amine Coupling Kit (Pharmacia) as described earlier (Johnsson, et al., (1991) Anal. Biochem. 198, 268-277). Via amino groups, 2160 RU of the purified monomeric anti-phOx-scFv is immobilised to the sensor chip (i.e., about 2 ng/mm^2 chip surface; Stenberg, et al., (1991) J. Colloid Interface Sci. 143, 513-526).The activation time is adjusted to 7 min at a flow rate of 5 µl/min. For immobilisation 35 µl of the scFv sample are injected to the chip at the same flow rate. […]
Since a notable background binding of BSA to the modified chip is observed, it is indispensable to record the scFv binding events for both analytes phOx20.5BSA and BSA. […] KD can be derived from the differential RU measured at different phOx concentrations before dissociation is initiated.

Structure (SMILES): CCO/C=C1/N=C(c2ccccc2)OC1=O [phOx]
- Kd: 84.7 µM
